These results are taken from ChEMBL document CHEMBL1152468, “Fitness cost and impaired survival in penicillin-resistant Streptococcus gordonii isolates selected in the laboratory” (2008).

For assay [1], the system named is Streptococcus gordonii. As to the kind of experiment: Antimicrobial activity against wild type Streptococcus gordonii assessed as logarithmic reduction in viability at stationary phase of growth after 70 hrs. It is filed as functional.
Assay [2] relates to Streptococcus gordonii. As to the kind of experiment: Antimicrobial activity against penicillin-resistant Streptococcus gordonii PR1_2 mutant assessed as generation time at mid-logarithmic phase of growth. It is filed as functional.
Assay [3] deals with Streptococcus gordonii. As to the kind of experiment: Antimicrobial activity against penicillin-resistant Streptococcus gordonii PR1_2evolved mutant assessed as generation time at mid-logarithmic phase of growth. In kind it is functional.
Assay [4] deals with Streptococcus gordonii. As to the kind of experiment: Antimicrobial activity against penicillin-resistant Streptococcus gordonii PR1_2 mutant assessed as logarithmic reduction in viability at stationary phase of growth after 70 hrs. In kind it is functional.
Assay [5] deals with Streptococcus gordonii. As to the kind of experiment: Antimicrobial activity against wild type Streptococcus gordonii. In kind it is functional.
The subject of assay [6] is Streptococcus gordonii. As to the kind of experiment: Antimicrobial activity against penicillin-resistant Streptococcus gordonii PR1_2evolved mutant co-cultured with wild type Streptococcus gordoni assessed as loss of viability at stationary phase of growth at 0.5 ug/mL after 15 hrs. It is filed as functional, organism-based.
Assay [7] deals with Streptococcus gordonii. As to the kind of experiment: Antimicrobial activity against wild type Streptococcus gordonii assessed as generation time at mid-logarithmic phase of growth. In kind it is functional.
The subject of assay [8] is Streptococcus gordonii. As to the kind of experiment: Ratio of generation time for wild type Streptococcus gordonii to generation time for penicillin-resistant Streptococcus gordonii PR1_2evolved mutant at mid-logarithmic phase of growth. It is filed as functional.
For assay [9], the system named is Streptococcus gordonii. As to the kind of experiment: Antimicrobial activity against penicillin-resistant Streptococcus gordonii PR1_2 mutant. It is filed as functional.
The subject of assay [10] is Streptococcus gordonii. As to the kind of experiment: Antimicrobial activity against penicillin-resistant Streptococcus gordonii PR1_2evolved mutant co-cultured with wild type Streptococcus gordoni assessed as loss of viability at stationary phase of growth at 0.5 ug/mL after 70 hrs relative to wild type. In kind it is functional, organism-based.
Assay [11] concerns Streptococcus gordonii. As to the kind of experiment: Ratio of generation time for wild type Streptococcus gordonii to generation time for penicillin-resistant Streptococcus gordonii PR1_2 mutant at mid-logarithmic phase of growth. In kind it is functional.

Values after ≈ are worked out from the molar mass of the structure shown. Active and inactive are the calls of the source. The rule behind the calls is not given here.

In the case of `CC1(C)S[C@@H]2[C@H](NC(=O)Cc3ccccc3)C(=O)N2[C@H]1C(=O)O` [PENICILLIN G], the Activity in the assay on Streptococcus gordonii [1] is 2 log10CFU/ml; in the assay with Streptococcus gordonii [2] it was 60.6 min; in the assay on Streptococcus gordonii [3], 45 min; with Streptococcus gordonii [4] it was greater than 4 log10CFU/ml; in the assay with Streptococcus gordonii [7] it was 48.4 min. The values for the MIC against Streptococcus gordonii [5] and in the assay with Streptococcus gordonii [9] were 0.008 µg/mL (≈ 0.0239 µM) and 2 µg/mL (≈ 5.98 µM), respectively. Moreover, the result with Streptococcus gordonii [6] and in the assay with Streptococcus gordonii [10] was Active. In addition, the results for the Ratio with Streptococcus gordonii [8] and in the assay on Streptococcus gordonii [11] were 1.06 and 0.8, respectively.
